Laboratory results from ChEMBL document CHEMBL5120879, “Medicinal Chemistry Strategies for the Development of Bruton's Tyrosine Kinase Inhibitors against Resistance” (J Med Chem, 2022).
Values belong to the molecule of their own block, whether it stands above or below them.

Experiments:
[1] = molecular target: von Hippel-Lindau disease tumor suppressor/Tyrosine-protein kinase BTK (Homo sapiens, UniProt Q06187+P40337); experiment: PROTAC activity at VHL/BTK (unknown origin) assessed as induction of BTK degradation; assay type: protein assay
[2] = Intrinsic clearance in mouse; assay type: ADME, organism-based; settings: in vivo
[3] = molecular target: T1, Tyrosine-protein kinase BTK (Homo sapiens, UniProt Q06187, C481S); experiment: Induction of degradation of Ibrutinib-resistant BTK C481S mutant (unknown origin)
[4] = molecular target: T2, Tyrosine-protein kinase BTK (Homo sapiens, UniProt Q06187); experiment: Inhibition of BTK (unknown origin)
[5] = molecular target: Protein cereblon/Tyrosine-protein kinase BTK (Homo sapiens, UniProt Q06187+Q96SW2); experiment: PROTAC activity at CRBN/BTK (unknown origin) assessed as BTK degradation; assay type: protein assay
[6] = Inhibition of cell proliferation in human HBL1 cells harboring Ibrutinib-resistant BTK C481S mutant assessed as cell growth inhibition; assay type: functional
[7] = Inhibition of BTK C481Y mutant (unknown origin); set-up: species or system Homo sapiens
[8] = molecular target: T2, Tyrosine-protein kinase BTK; experiment: Induction of degradation of BTK in human Ramos cells at 10 nM relative to control; assay type: cell-based
[9] = molecular target: T2, Tyrosine-protein kinase BTK; experiment: Induction of degradation of BTK in human Ramos cells at 100 nM relative to control; assay type: cell-based
[10] = molecular target: T2, Tyrosine-protein kinase BTK; experiment: Inhibition of wild-type BTK (unknown origin)
[11] = molecular target: T1, Tyrosine-protein kinase BTK; experiment: Inhibition of BTK C481S mutant (unknown origin)

T2 sequence (Q06187 whole entry): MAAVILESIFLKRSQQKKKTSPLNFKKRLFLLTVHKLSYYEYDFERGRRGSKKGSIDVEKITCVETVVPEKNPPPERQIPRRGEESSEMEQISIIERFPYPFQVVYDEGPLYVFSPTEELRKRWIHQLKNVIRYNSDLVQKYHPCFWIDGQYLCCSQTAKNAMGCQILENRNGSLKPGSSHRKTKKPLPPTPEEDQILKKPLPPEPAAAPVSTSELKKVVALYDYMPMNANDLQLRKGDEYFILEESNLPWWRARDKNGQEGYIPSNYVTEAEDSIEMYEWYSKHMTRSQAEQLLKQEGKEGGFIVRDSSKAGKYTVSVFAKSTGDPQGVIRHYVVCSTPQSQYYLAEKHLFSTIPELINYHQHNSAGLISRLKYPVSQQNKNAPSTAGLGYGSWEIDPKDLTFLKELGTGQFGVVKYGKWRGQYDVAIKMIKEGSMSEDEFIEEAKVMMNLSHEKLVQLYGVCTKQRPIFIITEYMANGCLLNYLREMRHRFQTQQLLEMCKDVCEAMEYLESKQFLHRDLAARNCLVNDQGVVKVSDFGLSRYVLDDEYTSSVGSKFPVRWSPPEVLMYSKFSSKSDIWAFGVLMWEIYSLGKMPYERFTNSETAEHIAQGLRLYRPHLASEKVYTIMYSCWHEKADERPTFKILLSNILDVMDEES
T1 sequence (Q06187 2-659 C481S limits assumed): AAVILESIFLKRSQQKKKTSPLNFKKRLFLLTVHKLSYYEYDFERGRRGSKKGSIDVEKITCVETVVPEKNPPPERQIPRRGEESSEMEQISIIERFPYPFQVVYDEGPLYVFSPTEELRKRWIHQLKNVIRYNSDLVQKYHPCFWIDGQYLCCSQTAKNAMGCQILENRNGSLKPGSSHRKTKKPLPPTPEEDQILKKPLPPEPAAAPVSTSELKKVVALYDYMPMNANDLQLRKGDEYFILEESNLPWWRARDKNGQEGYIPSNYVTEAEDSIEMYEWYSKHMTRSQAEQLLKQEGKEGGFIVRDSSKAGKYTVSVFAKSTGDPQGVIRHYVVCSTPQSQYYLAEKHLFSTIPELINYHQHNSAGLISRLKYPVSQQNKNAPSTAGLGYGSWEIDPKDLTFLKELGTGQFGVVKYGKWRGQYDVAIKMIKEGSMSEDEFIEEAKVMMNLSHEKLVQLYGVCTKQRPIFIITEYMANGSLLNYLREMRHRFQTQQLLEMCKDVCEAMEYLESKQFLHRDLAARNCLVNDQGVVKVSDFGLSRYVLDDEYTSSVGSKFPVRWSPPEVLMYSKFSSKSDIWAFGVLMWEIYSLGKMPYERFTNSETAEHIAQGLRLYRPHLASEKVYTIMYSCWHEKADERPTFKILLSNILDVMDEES
Chain of Protein cereblon/Tyrosine-protein kinase BTK (Q06187 whole entry): as the sequence (Q06187 whole entry) above
Chain of Protein cereblon/Tyrosine-protein kinase BTK (Q96SW2 whole entry): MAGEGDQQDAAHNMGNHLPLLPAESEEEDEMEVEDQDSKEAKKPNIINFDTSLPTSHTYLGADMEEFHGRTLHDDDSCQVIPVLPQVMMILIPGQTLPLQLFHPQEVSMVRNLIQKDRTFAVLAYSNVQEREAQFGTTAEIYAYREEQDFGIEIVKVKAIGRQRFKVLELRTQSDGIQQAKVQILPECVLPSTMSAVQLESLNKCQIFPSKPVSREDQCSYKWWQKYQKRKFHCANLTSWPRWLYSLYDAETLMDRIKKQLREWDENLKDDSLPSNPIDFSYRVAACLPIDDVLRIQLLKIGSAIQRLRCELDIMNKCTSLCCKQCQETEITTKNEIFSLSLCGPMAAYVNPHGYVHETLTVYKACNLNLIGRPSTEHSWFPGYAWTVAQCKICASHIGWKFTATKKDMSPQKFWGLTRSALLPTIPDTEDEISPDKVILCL
Chain of von Hippel-Lindau disease tumor suppressor/Tyrosine-protein kinase BTK (Q06187 whole entry): as the sequence (Q06187 whole entry) above
Chain of von Hippel-Lindau disease tumor suppressor/Tyrosine-protein kinase BTK (P40337 whole entry): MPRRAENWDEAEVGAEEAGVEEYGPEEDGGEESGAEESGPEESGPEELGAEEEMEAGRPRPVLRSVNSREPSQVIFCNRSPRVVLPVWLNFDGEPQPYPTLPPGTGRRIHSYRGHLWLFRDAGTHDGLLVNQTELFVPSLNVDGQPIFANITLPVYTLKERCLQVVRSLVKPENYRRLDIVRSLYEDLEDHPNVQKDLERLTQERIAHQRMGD

- DC50 [1]: 7.9 nM
Compound: Nc1ncnc2c1c(-c1ccc(Oc3ccccc3)cc1)nn2C1CCN(CCOCCOCCOc2ccc3c(c2)CN(C2CCC(=O)NC2=O)C3=O)CC1 (stereo not drawn)

- CLint scaled [2]: 1660 mL/min/kg
Compound: Nc1ncnc2c1c(-c1ccc(Oc3ccccc3)cc1)nn2C1CCN(CCOCCOCC(=O)Nc2ccc3c(c2)C(=O)N(C2CCC(=O)NC2=O)C3=O)CC1 (stereo not drawn)

- DC50 [3]: 30 nM
Compound: COc1cc(Nc2c(C#N)cnc3cc(OCCCN4CCN(CCOCCOCCNc5cccc6c5C(=O)N(C5CCC(=O)NC5=O)C6=O)CC4)c(OC)cc23)c(Cl)cc1Cl (stereo not drawn)

- IC50 [4]: 0.3 nM
Compound: Cc1cc(C(N)=O)c2[nH]c3cc(C(C)(C)O)ccc3c2c1-c1cccc(-n2c(=O)[nH]c3c(F)cccc3c2=O)c1O

- DC50 [5]: 29 nM
Compound: Nc1ncnc2c1c(-c1ccc(Oc3ccccc3)cc1)nn2[C@@H]1CCCN(Cc2cn(CCOCCOCCOCCNc3cccc4c3CN(C3CCC(=O)NC3=O)C4=O)nn2)C1 (stereo partly drawn)
- GI50 [6]: 30 nM

- IC50 [7]: 0.1 nM
Compound: Nc1nccn2c([C@@H]3CC[C@H]4CN(CCO)CC(=O)N4C3)nc(-c3ccc(C(=O)Nc4cc(C(F)(F)F)ccn4)cc3)c12

- DC50 [5]: 6.3 nM
- Activity [8]: 73%
- Activity [9]: 89%
Compound: Nc1ncnc2c1c(-c1ccc(Oc3ccccc3)cc1)nn2[C@@H]1CCCN(C(=O)c2cn(CCOCCOCCOCCNc3cccc4c3C(=O)N(C3CCC(=O)NC3=O)C4=O)nn2)C1 (stereo partly drawn)
- GI50 [6]: 28 nM

- IC50 [10]: 0.85 nM
- IC50 [11]: 0.39 nM
Compound: O=C(c1ccc(Oc2ccccc2)cc1Cl)c1c[nH]c2ncnc(N[C@H]3CCC[C@H](CO)O3)c12
